Laboratory results as given in BindingDB's records for doi:10.1021/jm051273d (University of North Carolina At Chapel Hill, 2006).

Assays:
Test in all cases: PDE4 Activity Assay
Conditions in all cases: pH 7.5; 22 °C
[1] = target: cAMP-specific 3',5'-cyclic phosphodiesterase 4D (Homo sapiens, UniProt Q08499)
Experimental: (§1) PDE4 catalytic activity was monitored by measuring the hydrolysis of [3H]-cAMP to [3H]-AMP using PDE-SPA kit (Amersham International). [3H]-AMP was captured by the SPA beads, and quantified on a Wallac-Microbeta scintillation counter. A linear reaction progress curve (30 min) and a linear enzyme concentration response (0 to 500 pM) were observed. The IC50 value was calculated from an 11-point dose-response curve performed in duplicate using a 4-parameter least-squares nonlinear regression fit.

[2] = target: cAMP-specific 3',5'-cyclic phosphodiesterase 4B (Homo sapiens, UniProt Q07343)
Sequence of cAMP-specific 3',5'-cyclic phosphodiesterase 4B (Q07343 whole entry): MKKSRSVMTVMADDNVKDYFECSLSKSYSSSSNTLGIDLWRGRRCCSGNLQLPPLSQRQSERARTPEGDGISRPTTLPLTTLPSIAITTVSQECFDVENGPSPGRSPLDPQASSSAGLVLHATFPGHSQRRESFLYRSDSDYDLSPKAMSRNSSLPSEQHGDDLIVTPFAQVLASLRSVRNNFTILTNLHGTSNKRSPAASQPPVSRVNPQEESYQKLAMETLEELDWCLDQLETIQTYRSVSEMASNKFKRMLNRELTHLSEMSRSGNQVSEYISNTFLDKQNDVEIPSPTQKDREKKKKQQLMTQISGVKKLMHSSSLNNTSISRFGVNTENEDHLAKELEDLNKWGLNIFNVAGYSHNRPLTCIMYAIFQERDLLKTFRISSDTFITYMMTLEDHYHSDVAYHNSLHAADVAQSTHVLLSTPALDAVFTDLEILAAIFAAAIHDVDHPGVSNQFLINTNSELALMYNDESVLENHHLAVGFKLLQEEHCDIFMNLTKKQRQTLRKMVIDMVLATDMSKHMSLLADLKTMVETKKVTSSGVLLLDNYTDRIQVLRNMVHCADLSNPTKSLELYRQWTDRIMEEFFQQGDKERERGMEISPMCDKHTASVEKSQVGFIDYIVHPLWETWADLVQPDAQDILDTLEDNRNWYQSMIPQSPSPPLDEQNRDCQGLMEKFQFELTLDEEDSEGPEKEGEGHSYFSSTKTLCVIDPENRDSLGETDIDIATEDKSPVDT
Experimental: as §1

[3] = target: cAMP-specific 3',5'-cyclic phosphodiesterase 4C (Homo sapiens, UniProt Q08493)
Sequence of cAMP-specific 3',5'-cyclic phosphodiesterase 4C (Q08493 whole entry): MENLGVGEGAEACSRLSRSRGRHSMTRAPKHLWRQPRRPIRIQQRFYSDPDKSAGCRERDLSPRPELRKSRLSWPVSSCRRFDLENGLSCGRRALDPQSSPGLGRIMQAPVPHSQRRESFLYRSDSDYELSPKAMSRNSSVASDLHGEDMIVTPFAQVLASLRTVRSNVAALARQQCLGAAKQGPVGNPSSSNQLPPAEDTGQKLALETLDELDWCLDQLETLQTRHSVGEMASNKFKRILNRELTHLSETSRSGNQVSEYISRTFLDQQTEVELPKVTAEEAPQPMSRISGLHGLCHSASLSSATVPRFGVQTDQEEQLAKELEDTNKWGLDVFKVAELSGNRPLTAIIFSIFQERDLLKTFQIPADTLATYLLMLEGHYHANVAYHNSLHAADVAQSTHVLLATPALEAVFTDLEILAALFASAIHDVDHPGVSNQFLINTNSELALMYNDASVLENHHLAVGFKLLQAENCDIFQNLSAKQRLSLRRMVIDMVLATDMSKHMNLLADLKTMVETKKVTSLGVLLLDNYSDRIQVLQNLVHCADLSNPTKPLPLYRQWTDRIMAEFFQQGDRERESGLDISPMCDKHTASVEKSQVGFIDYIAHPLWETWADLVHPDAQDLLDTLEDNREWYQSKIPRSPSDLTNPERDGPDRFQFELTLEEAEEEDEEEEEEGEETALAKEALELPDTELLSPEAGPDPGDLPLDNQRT
Experimental: as §1

[4] = target: cAMP-specific 3',5'-cyclic phosphodiesterase 4A (Homo sapiens, UniProt P27815)
Sequence of cAMP-specific 3',5'-cyclic phosphodiesterase 4A (P27815 whole entry): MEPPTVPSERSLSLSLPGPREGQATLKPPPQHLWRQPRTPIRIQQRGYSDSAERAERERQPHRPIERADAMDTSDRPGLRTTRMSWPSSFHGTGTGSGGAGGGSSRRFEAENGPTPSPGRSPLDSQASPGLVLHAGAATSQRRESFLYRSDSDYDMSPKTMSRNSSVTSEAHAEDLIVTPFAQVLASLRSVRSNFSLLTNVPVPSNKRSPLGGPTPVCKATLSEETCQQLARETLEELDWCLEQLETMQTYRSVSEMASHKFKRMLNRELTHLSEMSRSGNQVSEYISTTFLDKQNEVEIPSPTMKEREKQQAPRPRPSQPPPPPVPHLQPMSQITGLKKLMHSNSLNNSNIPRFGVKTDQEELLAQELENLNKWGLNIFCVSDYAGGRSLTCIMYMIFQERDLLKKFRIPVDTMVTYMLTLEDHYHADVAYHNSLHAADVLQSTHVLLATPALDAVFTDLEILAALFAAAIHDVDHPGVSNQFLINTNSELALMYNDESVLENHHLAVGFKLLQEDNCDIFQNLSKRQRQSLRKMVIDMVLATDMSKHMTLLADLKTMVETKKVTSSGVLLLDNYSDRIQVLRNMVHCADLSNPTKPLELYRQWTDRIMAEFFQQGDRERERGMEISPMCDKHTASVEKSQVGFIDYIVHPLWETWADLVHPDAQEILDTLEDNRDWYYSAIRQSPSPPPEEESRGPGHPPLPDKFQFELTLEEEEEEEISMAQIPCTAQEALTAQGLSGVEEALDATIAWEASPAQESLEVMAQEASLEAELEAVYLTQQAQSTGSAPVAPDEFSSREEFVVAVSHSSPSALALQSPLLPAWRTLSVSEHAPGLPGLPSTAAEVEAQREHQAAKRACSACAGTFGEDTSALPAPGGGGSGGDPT
Experimental: as §1

Sequence of cAMP-specific 3',5'-cyclic phosphodiesterase 4D (Q08499 whole entry): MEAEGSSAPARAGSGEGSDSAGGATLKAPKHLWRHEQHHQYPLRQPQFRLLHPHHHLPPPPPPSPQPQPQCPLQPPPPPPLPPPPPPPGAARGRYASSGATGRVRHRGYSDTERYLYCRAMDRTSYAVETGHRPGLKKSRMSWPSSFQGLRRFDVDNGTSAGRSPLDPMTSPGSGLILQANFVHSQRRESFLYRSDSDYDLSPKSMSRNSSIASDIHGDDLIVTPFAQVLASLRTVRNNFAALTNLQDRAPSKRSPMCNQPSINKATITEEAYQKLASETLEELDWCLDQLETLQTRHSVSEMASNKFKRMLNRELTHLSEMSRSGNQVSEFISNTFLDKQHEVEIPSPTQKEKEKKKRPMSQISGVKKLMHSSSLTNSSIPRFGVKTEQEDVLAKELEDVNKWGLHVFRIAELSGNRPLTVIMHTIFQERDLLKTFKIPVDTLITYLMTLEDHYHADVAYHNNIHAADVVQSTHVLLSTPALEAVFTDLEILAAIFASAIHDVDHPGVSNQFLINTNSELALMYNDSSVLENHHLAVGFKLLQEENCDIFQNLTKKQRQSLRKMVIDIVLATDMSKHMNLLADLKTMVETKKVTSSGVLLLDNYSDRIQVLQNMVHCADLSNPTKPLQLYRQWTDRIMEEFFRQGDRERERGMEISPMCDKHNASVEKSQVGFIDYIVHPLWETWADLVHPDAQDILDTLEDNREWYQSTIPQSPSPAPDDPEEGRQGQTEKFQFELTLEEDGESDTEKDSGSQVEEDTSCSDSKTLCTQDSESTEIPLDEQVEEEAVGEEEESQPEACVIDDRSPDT

| Structure (SMILES) | IC50 [1] [nM] | IC50 [2] [nM] | IC50 [3] [nM] | IC50 [4] [nM] |
| --- | --- | --- | --- | --- |
| [O-][n+]1cccc(C[C@@H](c2ccc(OC(F)F)c(OC3CC3)c2)c2ncc(C(O)(C(F)(F)F)C(F)(F)F)s2)c1 [3-[(2S)-2-[3-cyclopropoxy-4-(difluoromethoxy)phenyl]-2-[5-(1,1,1,3,3,3-hexafluoro-2-hydroxypropan-2-yl)-1,3-thiazol-2-yl]ethyl]-1-oxidopyridin-1-ium] | 0.4 | 0.4 | 1 | 0.4 |
| [O-][n+]1cccc(C[C@H](c2ccc(OC(F)F)c(OC3CC3)c2)c2ncc(C(O)(C(F)(F)F)C(F)(F)F)s2)c1 [(R)-(-)-3-{2-[(3-cyclopropyloxy-4-difluromethoxy)phenyl]-2-[5-(2-(1-hydroxy-1-trifluoromethyl-2,2,2-trifluoro)ethyl)thiazolyl]ethyl}pyridine N-Oxide] |  | 40 | 135 | 56 |
